Experimental data: patent publication US11723987B2, “Double suicide gene vector systems for stem cells” (UNIVERSITY OF MIAMI, priority 2016, dated 2023)
Entries after “also recorded” stand apart in the source; their conditions may differ.

B1: T41L/N71S: double mutant of E. coli nitroreductase (NTR, nfsB) with enhanced kinetics of CB1954 activation (protein, UniProt P38489 1-217, looked up, variant T41L N71S)
Oxygen-insensitive NAD(P)H …: MDIISVALKRHSTKAFDASKKLTPEQAEQIKTLLQYSPSSLNSQPWHFIVASTEEGKARVAKSAAGNYVFSERKMLDASHVVVFCAKTAMDDVWLKLVVDQEDADGRFATPEAKAANDKGRKFFADMHRKDLHDDAEWMAKQVYLNVGNFLLGVAALGLDAVPIEGFDAAILDAEFGLKEKGYTSLVVVPVGHHSVEDFNATLPKSRLPQNITLTEV

Assays:
[1] = tested on: teratomas from λH1 cells; assay: Teratoma formation/elimination in immunodeficient mice xenotransplanted with undifferentiated λH1 cells; assay type: in vivo, NOD-SCID mice
Experimental: In order to test whether our suicide gene strategy works as intended in vivo, 5×10^6 undifferentiated λH1 cells were transplanted subcutaneously in the left posterior dorsal flank of 5-6-week-old immunodeficient NOD-SCID mice. These conditions are known to result in the formation of teratomas within 6-9 weeks. Groups were assigned as follows: • 1. Control (no treatment): 3 mice • 2. Peri-transplantation treatment with GCV (40 mg/kg of body weight; 5 days, starting the 7th day after transplantation): 4 mice • 3. Peri-transplantation treatment with CB1954 (20 mg/kg of body weight; 5 days, starting the 7th day after transplantation): 4 mice
As described in the literature, tumors could be manually palpated and measured using calipers in the control group starting at week 6-7. At week 10, one of the mice was euthanized for histopathological characterization of the teratoma. Starting on week 11, we treated the remaining two mice with a combination of GCV and CB1954 to test the hypothesis that pro-drug administration would eliminate already formed tumors.
Two mice in this group were euthanized at this point, showing no evidence of tumors (data not shown). […] This could be due to either the carry-over of residual hESc escapees that survived the initial GCV regimen, or to the development of GCV-resistant mutations in HSV-TK, as described in the literature. To test these two hypotheses, we re-treated these animals with ganciclovir in a 5-day drug/2-day rest regimen for the following two weeks. If the reason for the appearance of these late-onset tumors was resistance to the drug, we should continue to observe tumor growth despite the treatment; in contrast, if they were derived from surviving escapees, we might see tumor recession.
All animal experiments were conducted under the supervision of the University of Miami Institutional Animal Care and Use Committee (IACUC). NOD-SCID mice (5-6 weeks old; Jackson Laboratories, Bar Harbour, Me.) were housed in […] pathogen-free (SPF) conditions at the Division of Veterinary Resources (DVR). 5×10^6 hESc were resuspended in 50 μl mTeSR supplemented with […] of the ROCK inhibitor Y-27632A, and subsequently mixed with undiluted Matrigel of equal volume. The cell suspension was injected into the subcutis of the left posterior dorsal flank of the animal. Tumor growth was monitored with a caliper. Mice were euthanized after the observation/re-treatment period, as described in the Results section. Euthanized animals were subject to general observation. The injection site was inspected and tumor tissue, if present, was collected and processed for histopathological analysis. Lungs, liver spleen and pancreas were also harvested for histological analysis of potential tumor invasion.

[2] = tested on: λH1 cells (H1.1 cells); assay: MTT kill curve / pro-drug exposure of undifferentiated suicide-gene modified hESc; assay type: cell-based, human; settings: for exposure time after which most λH1 cells die: 10 μM CB1954, 100 μM GCV (FIG. 8c); for ablation of H1.1 cells: after 7 days of exposure (FIG. 2); for sensitivity of undifferentiated modified clones to pro-drug: undifferentiated state
Source text: Clones of the hESc line H1 containing both constructs were selected using Puro (for plasmid L) and Neo (for plasmid F). We used electroporation of the linearized plasmids followed by Puro+Neo selection to achieve stable integration of both cassettes (λH1). Integration was confirmed by PCR, and positive clones were expanded and stocked in liquid N2. ˜25 double resistant clones were handpicked, expanded under antibiotic selection and frozen in liquid N2. A typical undifferentiated colony of one such clone, propagated in Puro+Neo to maintain selective pressure, was imaged. […] Aliquots were screened by genomic PCR to confirm the integration of both constructs (data not shown). qRT-PCR was performed to determine which clones had higher transgene (HSV-TK and NTR) expression. Clone A (H1.1 from now on) was selected for further testing based on the results of these assays. A kill curve using different dosages for GCV (0.01 to 1000 μM) and CB1954 (0.1 to 300 μM) was done for H1.1. Cell death was quantified by MTT assays on H1.1 and the parental wild-type H1 line. These assays helped us determine the optimal concentration of each pro-drug that leads to complete ablation of undifferentiated H1.1 cells while preserving the viability of the parental line within 7 days. Such concentration was in the range of 10-100 μM for GCV and 50-100 μM for CB1954, as previously reported in the literature for other cell types^26,54,55. The integration of these constructs had no detectable effects in terms of pluripotency marker expression (TRA-1-60, SSEA3, SSEA4, Oct3/4, Nanog) vs. the unmodified parental line H1, as determined by qRT-PCR, immunofluorescence and FACS analyses (data not shown).
A kill curve using different dosages for GCV (0.01 to 1000 μM) and CB1954 (0.1 to 300 μM) was done for λH1 and the parental H1 lines. Cell death was quantified by MTT [3-(4,5-dimethylthiazol-2-yl)-2,5-diphenyltetrazolium bromide] assays, which helped us determine the optimal concentration of each pro-drug that leads to ablation of undifferentiated λH1 cells while preserving the viability of the parental line within 7 days. Such concentration was in the range of 10-100 μM for both GCV and CB1954 (FIG. 8a), as previously reported in the literature for other cell types (21, 22). We used 10 μM for CB1954 and 100 μM of GCV for all subsequent experiments.
hESc (H1, National Stem Cell Registry #WA01, passage 35-45) were cultured as described in Schuldiner et al., PNAS USA 97: 11307-11312 (2000) using mTeSR™ (STEMCELL Technologies, Vancouver, Canada). […] MTT (3-(4,5-dimethylthiazol-2-yl)-2,5-Diphenyltetrazolium Bromide) is a reagent which is converted from a soluble tetrazolium to its insoluble formazan form via the activity of mitochondrial NAD(P)H-dependent oxidoreductase activity. This can be used to evaluate growth and proliferation of hESC colonies. MTT growth assays were performed for the sensitivity of transfected colonies to neomycin, puromycin, GCV and CB1954 at varying concentrations as previously described.

[3] = tested on: parental H1 hESc line; assay: MTT kill curve / pro-drug exposure of parental unmodified hESc; assay type: cell-based, human; settings: up to 7 days of exposure
Source text: Clones of the hESc line H1 containing both constructs were selected using Puro (for plasmid L) and Neo (for plasmid F). We used electroporation of the linearized plasmids followed by Puro+Neo selection to achieve stable integration of both cassettes (λH1). Integration was confirmed by PCR, and positive clones were expanded and stocked in liquid N2. ˜25 double resistant clones were handpicked, expanded under antibiotic selection and frozen in liquid N2. A typical undifferentiated colony of one such clone, propagated in Puro+Neo to maintain selective pressure, was imaged. […] Cell death was quantified by MTT assays on H1.1 and the parental wild-type H1 line. […] The integration of these constructs had no detectable effects in terms of pluripotency marker expression (TRA-1-60, SSEA3, SSEA4, Oct3/4, Nanog) vs. the unmodified parental line H1, as determined by qRT-PCR, immunofluorescence and FACS analyses (data not shown).
A kill curve using different dosages for GCV (0.01 to 1000 μM) and CB1954 (0.1 to 300 μM) was done for λH1 and the parental H1 lines. Cell death was quantified by MTT [3-(4,5-dimethylthiazol-2-yl)-2,5-diphenyltetrazolium bromide] assays, which helped us determine the optimal concentration of each pro-drug that leads to ablation of undifferentiated λH1 cells while preserving the viability of the parental line within 7 days. […]

[4] = tested on: tumor cell lines; settings: Prof. Searle, personal communication; cited from earlier work

Row | Molecule | tumor formation after peri-transplantation treatment with CB1954 ([1]; 20 mg/kg, 5 days, starting the 7th day after transplantation, 11 weeks into the follow-up) | exposure time after which most λH1 cells die [2] [days] | ablation of H1.1 cells [2] [%] | sensitivity of undifferentiated modified clones to pro-drug [2] | sensitivity of parental H1 line to pro-drug [3] | tumor detection after peri-transplantation treatment with GCV ([1]; 40 mg/kg, 5 days, starting the 7th day after transplantation, up to week 10) | tumors after GCV re-treatment ([1]; 5-day drug/2-day rest regimen, 2-week course, one tumor >250 mm^3 at initiation (FIG. 11b)) | late-onset tumors in GCV-pretreated mice ([1]; two remaining mice, additional week after week 10) | optimal concentration of pro-drug that leads to ablation of undifferentiated modified cells while preserving the viability of the parental line ([2]; within 7 days, MTT assay, kill curve GCV 0.01 to 1000 μM, CB1954 0.1 to 300 μM) [µM] | fold lower CB1954 concentration to which cells are sensitized vs the native enzyme [4] [fold]
1 | NC(=O)c1cc(N2CC2)c([N+](=O)[O-])cc1[N+](=O)[O-] [CB1954, 5-(aziridin-1-yl)-2,4-dinitrobenzamide] | none of the animals in the third group (treated in the peri-transplantation period with CB1954) showed signs of tumor formation | 3 | 100 | sensitive | largely insensitive; also recorded: resistant; also recorded: remain largely unscathed | – | – | – | – | –
2 | Nc1nc(O)c2ncn(COC(CO)CO)c2n1 [GCV, ganciclovir] | – | 7 | 100 | sensitive | largely insensitive; also recorded: resistant; also recorded: remain largely unscathed | No tumors could be detected | both tumors virtually disappeared | the tumors grew significantly in both mice | 10 to 100 | –
3 | B1 | – | – | – | – | – | – | – | – | – | ~15
